Test results reported in US20130023563A1, “AMIDINOANILINE DERIVATIVE” (AJINOMOTO CO., INC., priority 2010, published 2013).
Counter-ions that a name gives are not always drawn.

What was measured:
[1] = system: human plasma; experiment: Anti-blood coagulant activity, aPTT method, Sysmex CA-1500 (Experimental Example 3-1); format: biochemical; conditions: negative logarithmic value of the concentration that prolongs aPTT of the control 2 times
Procedure: Experimental Example 3-1 Measurement of Anti-Blood Coagulant Activity
Examples 1, 8, 9, 11, 13, 16-19 and 22 were measured according to the following method.
(§1) An aPTT measurement method using totally automatic blood coagulation time measuring apparatus Sysmex CA-1500 was used. A 10 mg/ml DDVP solution (DDVP standard product, Wako) (4 μL) and a test compound solution (20 μL) were placed in a sample tube (MS-18, Japan Medical Science), human plasma (standard human plasma for blood coagulation test, GCH-100A, Sysmex) (180 μL) was added and the mixture was used as a test sample. The test sample (50 μL) was incubated at 37° C. for 1 min, data fi APTT (rabbit brain-derived cephalin, DADE Behiring) (50 μL) was added, and the mixture was further incubated at 37° C. for 2 min. To the sample solution was added 0.02M calcium chloride (50 μL), and the time until plasma coagulation was automatically measured.
(§2) As the anti-blood coagulant activity, the negative logarithmic value of the concentration that prolongs aPTT of the control 2 times is shown as paPTT2.

[2] = biological target: FXa (Homo sapiens, UniProt P00742); experiment: Measurement of inhibitory activity against activated factor X (chromogenic substrate S-2222); format: biochemical; conditions: 0.015 U/ml FXa, 0.2 mM S-2222, absorbance 405 nm; read-out: FXa (pIC50) (converted)
Procedure: Experimental Example 1 Measurement of Inhibitory Activity Against Activated Factor X Activity
(§3) Using a 96-well plate (#3396, Costar), 100 mM Tris-HC1 buffer (130 μL) containing 0.02% Tween 20, 0.1% PEG6000 and 0.2M NaCl was admixed with 0.015 U/ml FXa (10 μL) and a test compound (10 μL) for 10 min and a color developing substrate 0.2 mM S-2222 (50 μL) was added. Using a microplate reader Benchmark Plus (BIO-RAD), the reaction rate was measured from the time course changes at absorbance 405 nm. Using the reaction rate of the control as 100%, the negative logarithmic value of the concentration that can suppress the reaction rate of the control by 50% was taken as the pIC50 value.

[3] = biological target: activated factor IIa (thrombin) (Homo sapiens, UniProt P00734); experiment: Measurement of inhibitory activity against activated factor II (chromogenic substrate S-2238); format: biochemical; conditions: 0.125 U/ml thrombin, 0.1 mM S-2238, absorbance 405 nm; read-out: FIIa (pIC50) (converted)
Procedure: Experimental Example 2 Measurement of Inhibitory Activity Against Activated Factor II (FIIa, Thrombin)
as §3, with “mM Tris-HCl” for “mM Tris-HC1”, “with 0.125” for “with 0.015”, “U/ml activated factor IIa (thrombin)” for “U/ml FXa”, “substrate 0.1” for “substrate 0.2”, “mM S-2238” for “mM S-2222”

[4] = Evaluation of stability in plasma; format: in vitro ADME; conditions: human plasma, 37° C., read-out: T½
Procedure: Experimental Example 4 Evaluation of stability in plasma
To human plasma (495 μL) was added 5 μL from a solution of the test compound prepared to 200 μM (final drug solution concentration 2 μM), and the mixture was incubated at 37° C. At 0 min, 1 min, 2 min, 5 min and 10 min from the addition of the drug solution, 50 μL each was sampled, 0.1 mg/ml DDVP-containing acetonitrile (350 μL) was added, and the reaction was discontinued by blending them. After discontinuation of the reaction, a deproteination treatment was performed by a centrifugation operation at 15000 rpm for 5 min. The centrifugation supernatant (350 μL) was dried to solidness, concentrated, dissolved in aqueous solution (100 μL) of 20% acetonitrile and 0.1% formic acid and the mixture was subjected to the measurement by LC/MS/MS.
The half-life (T1/2) was calculated using initial 3rd-4th time points.

[5] = Evaluation of stability in liver S9 fraction; format: in vitro ADME; conditions: human liver S9 fraction 2 mg/mL, 2 μM, 37° C.
Procedure: Experimental Example 5 Evaluation of Stability in Liver S9 Fraction
Metabolism reaction mixed solution (0.1 mM EDTA-100 mM potassium phosphate buffer (pH 7.4), 2 mg/mL human liver S9 fraction, 0.5 mM oxidized nicotinamide adenine dinucleotide phosphate, 5 mM glucose-6-phosphoric acid, 1 unit/mL glucose-6-phosphate dehydrogenase) was pre-warmed at 37° C. for 5 min. After pre-warming, DMSO solution of the substrate was added such that the concentration of the final drug solution was 2 μM, and the metabolism reaction was started at 37° C. A given amount was sampled at 0 min, 5 min, 10 min and 30 min from the start of the reaction, 0.1 mg/mL dichlorvos-containing acetonitrile was added, and blended to discontinue the reaction. After discontinuation of the reaction, a deproteination treatment was performed by a centrifugation operation at 15000 rpm for 5 min. To the centrifugation supernatant was added 0.3% aqueous formic acid solution, admixed and the mixture was subjected to the measurement by LC/MS/MS. Then, as the residual ratio (%) at 30 min later, the ratio relative to the concentration at 0 min was calculated.

[6] = system: human plasma; experiment: Anti-blood coagulant activity, aPTT method, Sysmex Cs-2000i (Experimental Example 3-2); format: biochemical; conditions: negative logarithmic value of the concentration that prolongs aPTT of the control 2 times
Procedure: Experimental Example 3-2 Measurement of Anti-Blood Coagulant Activity
as §1, with “Cs-2000i” for “CA-1500”, “(8” for “(4”, “(40” for “(20”, “(360” for “(180”
as §2

Chain of FXa (P00742 235-488 limits assumed): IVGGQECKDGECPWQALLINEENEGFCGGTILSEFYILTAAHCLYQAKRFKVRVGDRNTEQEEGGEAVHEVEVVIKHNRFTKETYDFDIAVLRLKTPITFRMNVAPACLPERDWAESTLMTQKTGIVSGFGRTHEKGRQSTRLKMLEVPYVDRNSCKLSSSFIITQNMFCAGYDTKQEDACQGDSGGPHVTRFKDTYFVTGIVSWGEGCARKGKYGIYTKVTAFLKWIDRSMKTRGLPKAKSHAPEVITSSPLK
Chain of FXa (P00742 41-179 partner limits assumed): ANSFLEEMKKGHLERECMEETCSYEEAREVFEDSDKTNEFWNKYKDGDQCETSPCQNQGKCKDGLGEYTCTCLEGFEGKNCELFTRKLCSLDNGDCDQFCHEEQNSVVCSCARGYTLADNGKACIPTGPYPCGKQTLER

| SMILES | IC50 [2] | IC50 [3] | half-life at 2 μM [4] | residual ratio (%) of liver S9 fraction 30 min later [5] | paPTT2 [1] | paPTT2 [6] |
| --- | --- | --- | --- | --- | --- | --- |
| N=C(N)c1cccc(N2CCCC[C@@H]2C(=O)Oc2ccc(C(=N)N3CCCC3)cc2)c1 [compound of Ex. 18, 4-[imino(pyrrolidin-1-yl)methyl]phenyl (2R)-1-{3-[amino(imino)methyl]phenyl}piperidine-2-carboxylate 2 trifluoroacetate] | 4.57 nM | 2950 nM |  |  | 6.64 |  |
| N=C(N)c1cccc(N2C[C@H](OCc3ccccc3)C[C@H]2C(=O)Oc2ccc(C(=N)N3CCCC3)cc2)c1 [compound of Ex. 13, 4-[imino(pyrrolidin-1-yl)methyl]phenyl (4R)-1-{3-[amino(imino)methyl]phenyl}-4-(benzyloxy)-L-prolinate 2 trifluoroacetate] | 339 nM | 288 nM | 8.2 min | 86% | 5.59 |  |
| C[C@H](C(=O)Oc1ccc(C(=N)N2CCCC2)cc1)N(C)c1cccc(C(=N)N)c1 [compound of Ex. 5, 4-[imino(pyrrolidin-1-yl)methyl]phenyl N-{3-[amino(imino)methyl]phenyl}-N-methyl-D-alaninate 2 trifluoroacetate] | 20 nM | 38000 nM | 3.7 min | 64% |  | 6.26 |
| CN(CC(=O)Oc1ccc(C(=N)N2CCCC2)cc1)c1cccc(C(=N)N)c1 [compound of Ex. 1, 4-[imino(pyrrolidin-1-yl)methyl]phenyl N-{3-[amino(imino)methyl]phenyl}-N-methylglycinate 2 trifluoroacetate] | 45.7 nM | > 100000 nM |  |  | 5.48 |  |
| N=C(N)c1cccc(N2CCCC[C@H]2C(=O)Oc2ccc(C(=N)N3CCCC3)cc2)c1 [compound of Ex. 16, 4-[imino(pyrrolidin-1-yl)methyl]phenyl (2S)-1-{3-[amino(imino)methyl]phenyl}piperidine-2-carboxylate 2 trifluoroacetate] | 15.1 nM | 70800 nM |  |  | 6.85 |  |
| C[C@@H](C(=O)Oc1ccc(C(=N)N2CCCC2)cc1)N(C)c1cccc(C(=N)N)c1 [compound of Ex. 4, 4-[imino(pyrrolidin-1-yl)methyl]phenyl N-{3-[amino(imino)methyl]phenyl}-N-methyl-L-alaninate 2 trifluoroacetate] | 13.5 nM | 83200 nM | 4 min | 57% |  | 6.89 |
| CC(C)C[C@@H](C(=O)Oc1ccc(C(=N)N2CCCC2)cc1)N(C)c1cccc(C(=N)N)c1 [compound of Ex. 29, 4-[imino(pyrrolidin-1-yl)methyl]phenyl N-{3-[amino(imino)methyl]phenyl}-N-methyl-L-leucinate 2 trifluoroacetate] | 11.2 nM | 25700 nM |  |  |  | 6.72 |
| CCC(C(=O)Oc1ccc(C(=N)N2CCCC2)cc1)N(C)c1cccc(C(=N)N)c1 (stereo not shown) [compound of Ex. 47, 4-[imino(pyrrolidin-1-yl)methyl]phenyl 2-[{3-[amino(imino)methyl]phenyl}(methyl)amino]butanoate 2 trifluoroacetate] | 8.13 nM | 22400 nM |  |  |  | 6.82 |

More lines, main results first:

| IC50 [2] | IC50 [3] | half-life at 2 μM [4] | residual ratio (%) of liver S9 fraction 30 min later [5] | SMILES | paPTT2 [1] | paPTT2 [6] |
| --- | --- | --- | --- | --- | --- | --- |
| 40.7 nM | 53700 nM |  |  | CC(=N)N1CCC(Oc2ccc(OC(=O)[C@@H]3CCCCN3c3cccc(C(=N)N)c3)cc2)CC1 [compound of Ex. 17, 4-[(1-ethanimidoylpiperidin-4-yl)oxy]phenyl (2S)-1-{3-[amino(imino)methyl]phenyl}piperidine-2-carboxylate 2 trifluoroacetate] | 6.33 |  |
| 20 nM | 692 nM |  |  | N=C(N)c1cccc(N2CCC[C@@H]2C(=O)Oc2ccc(C(=N)N3CCCC3)cc2)c1 [compound of Ex. 9, 4-[imino(pyrrolidin-1-yl)methyl]phenyl 1-{3-[amino(imino)methyl]phenyl}-D-prolinate 2 trifluoroacetate] | 6.69 |  |
|  |  | 0.2 min | 76% | N=C(N)c1cccc(N2CCC[C@@H]2COC(=O)c2ccc(C(=N)N3CCCC3)cc2)c1 [compound of Ex. 23, ((2R)-1-{3-[amino(imino)methyl]phenyl}pyrrolidin-2-yl)methyl 4-[imino(pyrrolidin-1-yl)methyl]benzoate 2 trifluoroacetate] |  |  |
| 7.76 nM | 3390 nM |  |  | CC(=N)N1CCC(Oc2ccc(OC(=O)[C@H]3CCCCN3c3cccc(C(=N)N)c3)cc2)CC1 [compound of Ex. 19, 4-[(1-ethanimidoylpiperidin-4-yl)oxy]phenyl (2R)-1-{(3-[amino(imino)methyl]phenyl}piperidine-2-carboxylate 2 trifluoroacetate] | 6.89 |  |
| 282 nM | 25700 nM |  |  | N=C(N)c1cccc(N2CCC[C@H]2C(=O)Oc2ccc(C(=N)N3CCCC3)cc2)c1 [compound of Ex. 8, 4-[imino(pyrrolidin-1-yl)methyl]phenyl 1-{3-[amino(imino)methyl]phenyl}-L-prolinate 2 trifluoroacetate] | 5.66 |  |
| 4.47 nM | 34700 nM |  |  | CC(=N)N1CCC(Oc2ccc(OC(=O)[C@@H](COC(C)(C)C)N(C)c3cccc(C(=N)N)c3)cc2)CC1 [compound of Ex. 40, 4-[(1-ethanimidoylpiperidin-4-yl)oxy]phenyl N-{3-[amino(imino)methyl]phenyl}-O-(tert-butyl)-N-methyl-L-serinate 2 trifluoroacetate] |  | 6.53 |
|  |  | 0.5 min | 92% | CC(=N)N1CCC(Oc2ccc(C(=O)OC[C@@H]3CCCN3c3cccc(C(=N)N)c3)cc2)CC1 [compound of Ex. 24, ((2S)-1-{3-[amino(imino)methyl]phenyl}pyrrolidin-2-yl)methyl 4-[(1-ethanimidoylpiperidin-4-yl)oxy]benzoate 2 trifluoroacetate] |  |  |
